Reference: patent US12305177B2, “Methods and platforms for sustainable high yield terpenoid production” (Purdue Research Foundation, priority 2019, dated 2025)

Key:
A. thaliana Nudx1 = target: T1, A. thaliana Nudx1 (Arabidopsis thaliana, UniProt Q9CA40); experiment: Phosphatase activity / steady-state kinetics of recombinant AtNudx1 (BIOMOL Green phosphate detection); type: biochemical; details: for Km / kcat: substrate of AtNudx1, 100 mM TAPS pH 8.5, 10 mM MgCl2, 37° C., means ± SD, n = 3
T1 construct: The open reading frames (ORFs) of Arabidopsis Nudix genes were PCR-amplified from cDNA; His8 (N, cleaved yes); made in house; host or cells: E. coli BL21(DE3)
T1 sequence (Q9CA40 whole entry): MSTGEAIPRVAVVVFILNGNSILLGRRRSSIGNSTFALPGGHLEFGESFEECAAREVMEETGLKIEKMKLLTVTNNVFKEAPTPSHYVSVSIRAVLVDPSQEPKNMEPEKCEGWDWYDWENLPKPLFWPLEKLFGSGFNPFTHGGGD
Procedure: (§1) After removal of the cell debris by centrifugation, expressed proteins were purified from the supernatants by immobilized metal-affinity chromatography with HisPur Ni-NTA resin (ThermoFisher Scientific). Pure proteins were eluted with 50 mM Tris-HCL pH 8.0, 0.5 M NaCl buffer supplemented with 250 mM imidazole followed by buffer exchange to 50 mM Tris-HCl pH 8.0 and 0.2 M NaCl for storage. For the crystal screening and steady-state kinetic analysis described below, the N-terminal His8-tags of AtNudx1 and AtNudx3 were removed with thrombin and remaining histidine-tagged protein was removed by passing over HisPur Ni-NTA resin. AtNudx1 and AtNudx3 were further purified by size-exclusion chromatography on a Superdex 200 16/60 column (GE Lifesciences) equilibrated and eluted with 50 mM Tris-HCl pH 8.0 supplemented with 0.2 M NaCl and 2 mM dithiothreitol.
(§2) All enzyme assays described in the present disclosure were performed as follows. Phosphatase activity was monitored at 37° C. using BIOMOL Green reagent (Enzo Life Sciences) to detect and quantify released phosphate at 623 nm using a phosphate standard curve. The optimum pH for activity was determined using a three-component buffer system of 50 mM acetic acid, 50 mM MES, and 100 mM Tris-HCl with 0.1 mM IPP as substrate. Magnesium ion dependence was investigated with 1 mM to 20 mM MgCl2. […] Reactions were initiated by the addition of enzyme and quenched by the addition of BIOMOL Green.
(§3) Controls included assays without enzyme and without substrate. All enzyme assays were performed at an appropriate enzyme concentration so that the reaction velocity was linear and proportional to the enzyme concentration during the incubation time period. Kinetic data was fitted using Prism (GraphPad Software) to the Michaelis-Menten equation to compute KM and kcat. At least triplicate assays were performed for all data points. Resulting Findings and Systems, Methods, and Platforms

A. thaliana Nudx3 = target: T2, A. thaliana Nudx3 (Arabidopsis thaliana, UniProt Q8L831); experiment: Phosphatase activity / steady-state kinetics of recombinant AtNudx3 (BIOMOL Green phosphate detection); type: biochemical; details: for Km / kcat: substrate of AtNudx3, 100 mM TAPS pH 8.5, 10 mM MgCl2, 37° C., means ± SD, n = 3
T2 construct: His8 (N, cleaved yes); made in house; host or cells: E. coli BL21(DE3)
T2 sequence (Q8L831 1-772): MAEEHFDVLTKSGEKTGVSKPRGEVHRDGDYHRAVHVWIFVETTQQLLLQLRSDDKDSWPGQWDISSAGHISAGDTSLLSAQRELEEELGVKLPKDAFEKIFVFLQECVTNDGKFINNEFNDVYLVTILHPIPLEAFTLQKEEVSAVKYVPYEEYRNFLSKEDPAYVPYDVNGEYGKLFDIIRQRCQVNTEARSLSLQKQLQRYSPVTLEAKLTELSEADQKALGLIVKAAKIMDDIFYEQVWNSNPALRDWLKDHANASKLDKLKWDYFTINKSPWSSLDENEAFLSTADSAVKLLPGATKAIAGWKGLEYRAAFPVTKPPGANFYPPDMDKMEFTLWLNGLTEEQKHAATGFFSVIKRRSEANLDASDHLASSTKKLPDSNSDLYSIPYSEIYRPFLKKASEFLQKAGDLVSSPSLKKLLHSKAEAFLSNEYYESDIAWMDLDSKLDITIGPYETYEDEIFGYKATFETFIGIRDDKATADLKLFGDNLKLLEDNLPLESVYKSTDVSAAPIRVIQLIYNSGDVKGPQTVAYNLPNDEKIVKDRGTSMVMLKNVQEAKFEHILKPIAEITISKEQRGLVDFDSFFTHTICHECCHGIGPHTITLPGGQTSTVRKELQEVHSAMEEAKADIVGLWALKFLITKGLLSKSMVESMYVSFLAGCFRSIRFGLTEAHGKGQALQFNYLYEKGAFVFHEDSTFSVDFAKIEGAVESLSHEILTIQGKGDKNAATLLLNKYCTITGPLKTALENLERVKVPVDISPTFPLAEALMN
Procedure: as §1, §2, §3

AtPMK = target: T3, AtPMK (Arabidopsis thaliana, UniProt Q9C6T1); details: substrate of Arabidopsis PMK (AtPMK, At1g31910); previous characterization; cited from earlier work
T3 sequence (Q9C6T1 1-505): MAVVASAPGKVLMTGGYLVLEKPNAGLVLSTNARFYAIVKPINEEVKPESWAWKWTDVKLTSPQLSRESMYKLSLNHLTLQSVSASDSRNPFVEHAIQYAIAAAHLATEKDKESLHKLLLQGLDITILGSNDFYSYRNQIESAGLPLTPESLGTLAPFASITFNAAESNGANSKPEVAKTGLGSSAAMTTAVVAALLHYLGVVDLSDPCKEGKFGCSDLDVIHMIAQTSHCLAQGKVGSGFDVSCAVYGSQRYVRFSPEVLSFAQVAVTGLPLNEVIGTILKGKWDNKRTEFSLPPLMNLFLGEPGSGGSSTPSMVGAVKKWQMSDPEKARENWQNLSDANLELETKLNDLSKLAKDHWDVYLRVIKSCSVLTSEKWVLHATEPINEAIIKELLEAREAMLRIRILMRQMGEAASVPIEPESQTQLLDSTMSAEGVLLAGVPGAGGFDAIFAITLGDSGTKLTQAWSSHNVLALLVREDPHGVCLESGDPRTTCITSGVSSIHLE

FPP synthase = details: cited from earlier work

With CC(C)=CCC/C(C)=C/COP(=O)(O)O [GP, geranyl phosphate] as the compound, how does the “phosphatase activity with the compound as substrate” value (from here on “phosphatase activity”) (A. thaliana Nudx1; AtNudx1) read?
The value was “No phosphatase activity was detected”.

And the “phosphatase activity” value (A. thaliana Nudx3; AtNudx3)?
Its value is “No phosphatase activity was detected”.

Which results are given for mevalonate diphosphate [(R)-MVAPP]?
fold less efficient as a substrate (catalytic efficiency) (A. thaliana Nudx1; AtNudx1, compared with IPP, DMAPP, GPP and FPP): 100 fold; Km (A. thaliana Nudx1): 240 ± 60 µM; kcat (A. thaliana Nudx1): 0.51 ± 0.06 s⁻¹; Km (A. thaliana Nudx3): 125 ± 36 µM; kcat (A. thaliana Nudx3): 1.5 ± 0.2 s⁻¹

For CC(C)=CCC/C(C)=C/COP(=O)(O)OP(=O)(O)O [GPP, geranyl diphosphate], which Km (A. thaliana Nudx1) is on record?
The Km was 8.3 ± 2.5 µM.

And the kcat (A. thaliana Nudx1)?
The kcat was 2.0 ± 0.3 s⁻¹.

What about the Km (A. thaliana Nudx3) of the same compound?
The Km was 53 ± 13 µM.

What about the kcat (A. thaliana Nudx3) of the same compound?
The kcat was 2.7 ± 0.3 s⁻¹.

Which “phosphatase activity” value (A. thaliana Nudx1; AtNudx1) does the source give for C[C@@](O)(CCOP(=O)(O)O)CC(=O)O [MVAP, phosphomevalonate] here?
Its value is “No phosphatase activity was detected”.

What about the “phosphatase activity” value (A. thaliana Nudx3; AtNudx3) of the same compound?
The value was “No phosphatase activity was detected”.

What about the Km (AtPMK) of the same compound?
Its Km is 12 µM.

What does the source list for CC(C)=CCOP(=O)(O)O [DMAP, dimethylallyl phosphate]?
phosphatase activity with the compound as substrate (A. thaliana Nudx1; AtNudx1): No phosphatase activity was detected; phosphatase activity with the compound as substrate (A. thaliana Nudx3; AtNudx3): No phosphatase activity was detected; inhibition of FPP synthase (FPP synthase): competitively inhibited

Which “fold lower specific activity at pH 6.5 than at the optimal pH of 8.5” value (A. thaliana Nudx1; AtNudx1, IPP as substrate, 37° C.) does the source give for C=C(C)CCOP(=O)(O)OP(=O)(O)O [IPP, isopentenyl diphosphate] here?
The value was 7 fold.

What about the Km (A. thaliana Nudx1) of the same compound?
Its Km is 8 ± 0.6 µM.

And the kcat (A. thaliana Nudx1)?
The kcat was 1.11 ± 0.02 s⁻¹.

What about the “fold higher catalytic efficiency” value (A. thaliana Nudx3; AtNudx3, compared to GPP and FPP as substrates) of the same compound?
The value was 3 fold.

And the Km (A. thaliana Nudx3)?
Its Km is 36 ± 8 µM.

What about the kcat (A. thaliana Nudx3) of the same compound?
The kcat was 5.5 ± 0.3 s⁻¹.

Which Km (A. thaliana Nudx1) does the source give for Nc1nc2c([nH]c(=O)n2[C@H]2C[C@H](O)[C@@H](COP(=O)(O)OP(=O)(O)OP(=O)(O)O)O2)c(=O)[nH]1 [8-oxo-dGTP] here?
Its Km is 33 ± 2 µM.

What about the kcat (A. thaliana Nudx1) of the same compound?
The kcat was 4.5 ± 0.1 s⁻¹.

What about the “phosphatase activity” value (A. thaliana Nudx3; AtNudx3) of the same compound?
The value was “unable to dephosphorylate”.

Which “phosphatase activity” value (A. thaliana Nudx1; AtNudx1) does the source give for CC(C)=CCC/C(C)=C/CC/C(C)=C/COP(=O)(O)O [FP, farnesyl phosphate] here?
Its value is “No phosphatase activity was detected”.

What about the “phosphatase activity” value (A. thaliana Nudx3; AtNudx3) of the same compound?
Its value is “No phosphatase activity was detected”.
